Assay [1] has as its target Sodium-dependent serotonin transporter (Rattus norvegicus, UniProt P31652). Nature of the assay: Displacement of [3H]-citalopram from SERT in Sprague-Dawley rat brainstem incubated for 60 mins by radioligand binding assay. Type of assay: tissue-based. (In general: In a radioligand displacement assay an active substance lowers the binding of a labelled ligand.)
Assay [2] concerns the target Sodium-dependent dopamine transporter (Rattus norvegicus, UniProt P23977). Nature of the assay: Displacement of [3H]-WIN 3542875 from DAT in Sprague-Dawley rat brain striatum incubated for 120 mins by radioligand binding assay. In kind it is tissue-based.
Assay [3] has as its target Norepinephrine transporter (Rattus norvegicus, UniProt Q9WTR4). Nature of the assay: Displacement of [3H]-nisoxetine from NET in Sprague-Dawley rat brain prefrontal cortex incubated for 180 mins by radioligand binding assay. Type of assay: tissue-based.
Assay [4] is filed under the species Rattus norvegicus. The experiment in a line: Selectivity index, ratio of Ki for Displacement of [3H]-WIN 3542875 from DAT in Sprague-Dawley rat brain striatum to Ki for Displacement of [3H]-nisoxetine from NET in Sprague-Dawley rat brain prefrontal cortex.
Assay [5] has as its target Sodium-dependent serotonin transporter (Homo sapiens) (UniProt P31645). Nature of the assay: Binding affinity to human SERT expressed in HEK293 cells at 10 nM incubated for 20 mins by laser scanning microscopy. In kind it is cell-based.
Assay [6] addresses Sodium-dependent noradrenaline transporter (Homo sapiens) (UniProt P23975). The experiment in a line: Binding affinity to human NET expressed in HEK293 cells assessed as fluorescence increase at plasma membrane at 1 to 10 nM incubated for 10 mins by laser scanning microscopy. As to conditions: dose 1-10 nM, DDE = dose-dependent effect.
The species named for assay [7] is Rattus norvegicus. Nature of the assay: Selectivity index, ratio of Ki for displacement of [3H]-citalopram from SERT in Sprague-Dawley rat brainstem to Ki for Displacement of [3H]-nisoxetine from NET in Sprague-Dawley rat brain prefrontal cortex.
The target in assay [8] is Sodium-dependent noradrenaline transporter (Homo sapiens) (UniProt P23975). The experiment in a line: Binding affinity to YFP-tagged human NET expressed in HEK293 cells assessed as fluorescence increase at plasma membrane at 10 nM incubated for 1 to 20 mins by laser scanning microscopy. As to conditions: time 1-20 min, TDE = time-dependent effect.

pKi: −log10 of the molar value. Calls of active or inactive are those of the source. The rule behind the calls is not given here.

A word on the pKi: it is the Ki on a negative log10 scale, so that one unit is a factor of ten. Low readings indicate a high Ki, high ones a low Ki.

Sequence of Sodium-dependent dopamine transporter (P23977 whole entry): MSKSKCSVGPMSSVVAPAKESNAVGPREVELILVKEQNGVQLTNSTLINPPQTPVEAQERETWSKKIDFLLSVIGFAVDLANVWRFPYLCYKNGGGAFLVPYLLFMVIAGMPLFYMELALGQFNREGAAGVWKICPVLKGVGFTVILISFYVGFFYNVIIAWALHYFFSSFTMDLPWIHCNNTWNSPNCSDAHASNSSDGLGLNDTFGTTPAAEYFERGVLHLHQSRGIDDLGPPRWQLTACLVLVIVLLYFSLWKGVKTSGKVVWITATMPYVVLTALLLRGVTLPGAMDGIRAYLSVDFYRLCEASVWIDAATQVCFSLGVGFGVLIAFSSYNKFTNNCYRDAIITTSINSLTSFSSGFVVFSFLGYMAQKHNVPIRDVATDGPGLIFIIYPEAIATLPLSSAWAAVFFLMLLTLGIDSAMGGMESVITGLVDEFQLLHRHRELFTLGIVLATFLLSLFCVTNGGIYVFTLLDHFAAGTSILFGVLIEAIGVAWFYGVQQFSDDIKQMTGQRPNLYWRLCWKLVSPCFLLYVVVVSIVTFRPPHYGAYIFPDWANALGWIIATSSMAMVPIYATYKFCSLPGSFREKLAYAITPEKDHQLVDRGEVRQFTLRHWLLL
Sequence of Norepinephrine transporter (Q9WTR4 whole entry): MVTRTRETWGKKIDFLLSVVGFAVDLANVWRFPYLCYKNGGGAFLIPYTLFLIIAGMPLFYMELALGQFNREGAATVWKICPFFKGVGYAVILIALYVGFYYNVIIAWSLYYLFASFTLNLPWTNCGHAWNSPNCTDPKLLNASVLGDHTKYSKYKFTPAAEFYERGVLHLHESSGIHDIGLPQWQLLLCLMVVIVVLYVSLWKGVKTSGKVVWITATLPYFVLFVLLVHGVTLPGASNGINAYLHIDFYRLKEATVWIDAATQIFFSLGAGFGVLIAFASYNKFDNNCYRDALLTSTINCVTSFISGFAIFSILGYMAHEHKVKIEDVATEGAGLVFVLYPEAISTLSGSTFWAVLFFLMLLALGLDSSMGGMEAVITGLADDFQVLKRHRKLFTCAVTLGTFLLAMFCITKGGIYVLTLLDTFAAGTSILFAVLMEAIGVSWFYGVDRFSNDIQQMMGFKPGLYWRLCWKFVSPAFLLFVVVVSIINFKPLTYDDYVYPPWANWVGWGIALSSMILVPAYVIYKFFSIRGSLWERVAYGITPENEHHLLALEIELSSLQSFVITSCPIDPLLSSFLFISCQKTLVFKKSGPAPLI
Sequence of Sodium-dependent serotonin transporter (P31652 whole entry): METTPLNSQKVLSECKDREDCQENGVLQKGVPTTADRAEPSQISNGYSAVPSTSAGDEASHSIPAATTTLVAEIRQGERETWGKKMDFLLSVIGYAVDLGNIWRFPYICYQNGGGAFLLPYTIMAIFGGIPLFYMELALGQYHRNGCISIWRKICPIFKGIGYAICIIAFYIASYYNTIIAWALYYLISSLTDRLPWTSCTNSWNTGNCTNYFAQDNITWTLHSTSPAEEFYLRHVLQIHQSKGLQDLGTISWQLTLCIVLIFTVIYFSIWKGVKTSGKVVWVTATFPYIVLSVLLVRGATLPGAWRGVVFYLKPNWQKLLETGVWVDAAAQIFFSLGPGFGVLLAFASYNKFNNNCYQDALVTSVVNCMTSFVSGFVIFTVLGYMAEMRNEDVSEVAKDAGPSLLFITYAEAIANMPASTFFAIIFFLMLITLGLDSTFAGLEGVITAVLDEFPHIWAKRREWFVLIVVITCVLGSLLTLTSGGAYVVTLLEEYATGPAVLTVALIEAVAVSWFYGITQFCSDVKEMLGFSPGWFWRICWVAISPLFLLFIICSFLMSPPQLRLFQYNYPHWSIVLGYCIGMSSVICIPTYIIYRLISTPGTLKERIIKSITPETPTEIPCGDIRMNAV
Sequence of Sodium-dependent noradrenaline transporter (Homo sapiens) (P23975 whole entry): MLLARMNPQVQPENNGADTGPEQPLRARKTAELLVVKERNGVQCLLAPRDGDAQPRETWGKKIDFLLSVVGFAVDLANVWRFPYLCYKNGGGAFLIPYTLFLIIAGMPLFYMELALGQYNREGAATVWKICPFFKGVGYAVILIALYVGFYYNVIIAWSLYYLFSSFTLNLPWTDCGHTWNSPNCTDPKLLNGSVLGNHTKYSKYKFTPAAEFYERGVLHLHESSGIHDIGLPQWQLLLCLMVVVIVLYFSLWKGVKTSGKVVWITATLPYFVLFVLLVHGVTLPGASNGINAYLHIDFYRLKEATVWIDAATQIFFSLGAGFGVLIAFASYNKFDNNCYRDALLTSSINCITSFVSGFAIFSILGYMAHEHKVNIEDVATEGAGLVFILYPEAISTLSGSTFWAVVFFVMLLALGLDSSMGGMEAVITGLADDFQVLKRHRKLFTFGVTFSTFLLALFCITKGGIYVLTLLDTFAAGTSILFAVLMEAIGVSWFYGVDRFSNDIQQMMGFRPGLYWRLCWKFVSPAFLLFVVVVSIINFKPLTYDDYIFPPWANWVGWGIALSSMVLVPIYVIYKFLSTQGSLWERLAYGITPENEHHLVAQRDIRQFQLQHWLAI
Sequence of Sodium-dependent serotonin transporter (Homo sapiens) (P31645 whole entry, looked up): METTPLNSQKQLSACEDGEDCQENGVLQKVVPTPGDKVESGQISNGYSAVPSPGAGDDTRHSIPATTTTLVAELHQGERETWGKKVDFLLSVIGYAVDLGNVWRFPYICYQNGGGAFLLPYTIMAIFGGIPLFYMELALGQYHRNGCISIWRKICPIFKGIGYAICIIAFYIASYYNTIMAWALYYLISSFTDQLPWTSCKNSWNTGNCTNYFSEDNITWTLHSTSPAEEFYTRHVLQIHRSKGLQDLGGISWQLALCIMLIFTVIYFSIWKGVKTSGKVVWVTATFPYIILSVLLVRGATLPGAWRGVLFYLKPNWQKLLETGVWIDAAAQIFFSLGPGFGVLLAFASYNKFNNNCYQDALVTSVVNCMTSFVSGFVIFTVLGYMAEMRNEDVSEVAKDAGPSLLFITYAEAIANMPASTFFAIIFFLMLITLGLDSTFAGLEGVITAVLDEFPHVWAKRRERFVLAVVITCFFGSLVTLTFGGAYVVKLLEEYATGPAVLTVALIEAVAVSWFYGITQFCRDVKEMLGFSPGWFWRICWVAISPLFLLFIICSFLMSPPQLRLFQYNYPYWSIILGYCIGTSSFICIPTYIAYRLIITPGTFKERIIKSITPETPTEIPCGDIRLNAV

On to `CNCCCC1(c2ccccc2)OC(C)(C)c2ccccc21` (stereo not given) [TALOPRAM], for which the pKi is 6.10 in assay [1], below 5.00 in assay [2] and 8.35 in assay [3].

As for `CCN(CC)c1ccc2c(-c3ccc(S(=O)(=O)NCCCCCC(=O)NCc4ccc5c(c4)C(C)(C)OC5(CCCNC)c4ccccc4)cc3S(=O)(=O)[O-])c3ccc(=[N+](CC)CC)cc-3oc2c1` (stereo not given), the negative-log Ki (pKi) in assay [1] was 5.94; in assay [2], 6.02; in assay [3] it was below 5.00.

Consider `CCN(CC)c1ccc2c(-c3ccc(S(=O)(=O)NCCCCCC(=O)NCCNCCCC4(c5ccccc5)OC(C)(C)c5ccccc54)cc3S(=O)(=O)[O-])c3ccc(=[N+](CC)CC)cc-3oc2c1` (stereo not given), for which the figures for the pKi in assay [1], in assay [2] and in assay [3] were below 5.00, 5.31 and below 5.00, respectively.

With `CCN(CC)c1ccc2c(-c3ccc(S(=O)(=O)NCCCCCC(=O)NCc4cccc(C(CCNC)Oc5ccccc5OC)c4)cc3S(=O)(=O)[O-])c3ccc(=[N+](CC)CC)cc-3oc2c1` (stereo not given), the pKi is 6.11 in assay [1], 5.81 in assay [2] and 7.37 in assay [3]. Further, the Ratio Ki in assay [4] was determined as 36; in assay [7], 18. In assay [5], the result was Active. The Activity entry in assay [6] is “Dde”; in assay [8], “Tde”.

For the molecule `CCN(CC)c1ccc2c(-c3ccc(S(=O)(=O)NCCCCCC(=O)NCCN4C5CCC4[C@@H](C(=O)OC)[C@@H](c4ccc(Cl)c(Cl)c4)C5)cc3S(=O)(=O)[O-])c3ccc(=[N+](CC)CC)cc-3oc2c1` (stereo not given in full), the negative logarithm of the Ki (pKi) was 7.80 in assay [1], 7.77 in assay [2] and 7.10 in assay [3].

(Values after ChEMBL document CHEMBL5136963 (RSC Med Chem, 2021).)
